# In patent US4082736A, “Novel immunological adjuvant compounds and methods of preparation thereof” (Syntex (U.S.A.) Inc., priority 1976, dated 1978):
# How the values were obtained:
# guinea pig [1] = assay: Delayed hypersensitivity skin test to arsanilic tyrosine after immunisation with antigen mixture plus test compound in FIA; format: in vivo; conditions: s.c. in FIA emulsion, skin test day 14, read at 24 hours, relative to FIA = 1
# Method: (§1) The antigen mixture used consists of 20 μg. of arsanilic tyrosine and 100 μg. of protein [either bovine serum albumin (BSA) or ovalbumin]. The antigen mixture and the compounds to be tested, at the dose levels per guinea pig shown in the Table below, are dissolved in saline and emulsified with an equal volume of Freund's Incomplete Adjuvant (FIA). Groups of ten guinea pigs are used for each test compound and each guinea pig is injected with 0.1 ml. of the above emulsion, subcutaneously, in the nuchal region. Control groups are given the antigen mixture alone emulsified with FIA.
# After 14 days, all animals are skin tested using 25 μg arsanilic tyrosine conjugated to either BSA or ovalbumin (BSA is used in this test when ovalbumin is present in the antigen mixture and vice versa) which is given in 0.1 ml saline intradermally in the flanks of the animals. The potencies of the test compounds in stimulating the delayed hypersensitivity reaction are then computed by multiplying the average area of the skin reaction at 24 hours by a number from 1 to 3 which is a measure of the amount of infiltration observed in each skin reaction. Thus, the procedure is as follows: skin tests with a high degree of infiltration are scored as ++ and assigned the number 3; those with a lesser degree are scored as + and given the number 2, whereas skin reactions with no infiltration are scored as zero and assigned the number 1. These numbers are then totaled for the animals in a group and the average number obtained is then multiplied by the average area of the observed skin reaction. There is thus included in the potencies the amount of infiltration coupled with the average area observed in the skin test.
# guinea pig [2] = assay: Antibody titre (antibovine serum albumin or antiovalbumin) in sera by passive hemagglutination or Farr radioimmune assay; format: in vivo; conditions: s.c. in FIA emulsion, sera of day 42, relative to FIA = 1
# Method: as §1
# On day 42 all animals are bled by cardiac puncture and the sera assayed for antibovine serum albumin or antiovalbumin antibodies by the passive hemagglutination technique or by radioimmune assay using the Farr technique (P. Minden and R. S. Farr in "Handbook of Experimental Immunology", edited by D. M. Weir, Chapter 15, Volume 1, Blackwell Scientific Publications, Oxford) using ^125 iodine labeled bovine serum albumin. Average potencies of these assays are presented in Column 2 of the Table below relative to FIA having the value of one.
SMILES,"Average Potency, Delayed Hypersensitivity to Arsanilic Tyrosine (guinea pig [1]; dose 50 μg per guinea pig)","Average Potency, Antibody Titre (guinea pig [2]; dose 50 μg per guinea pig)","Average Potency, Delayed Hypersensitivity to Arsanilic Tyrosine (guinea pig [1]; dose 20 μg per guinea pig)","Average Potency, Antibody Titre (guinea pig [2]; dose 20 μg per guinea pig)"
"CC(=O)N[C@H]1C(O)O[C@H](CO)[C@@H](O)[C@@H]1O[C@H](C)C(=O)N[C@@H](C)C(=O)N[C@H](CCC(=O)O)C(N)=O (stereo partly drawn) [2-(2-acetamido-2-deoxy-D-glucos-3-O-yl)-D-propionyl-L-alanyl-D-isoglutamine, reference compound]",3.3,3.7,,
CC(=O)N[C@H]1C(O)O[C@H](CO)[C@@H](O)[C@@H]1O[C@H](C)C(=O)N[C@@H](CC(C)C)C(=O)N[C@H](CCC(=O)O)C(N)=O (stereo partly drawn) [2-(2-acetamido-2-deoxy-D-glucos-3-O-yl)-D-propionyl-L-leucyl-D-isoglutamine],7.5,5.3,,
CC(=O)N[C@H]1C(O)O[C@H](CO)[C@@H](O)[C@@H]1O[C@H](C)C(=O)N[C@@H](CCCCN)C(=O)N[C@H](CCC(=O)O)C(N)=O (stereo partly drawn) [2-(2-acetamido-2-deoxy-D-glucos-3-O-yl)-D-propionyl-L-lysyl-D-isoglutamine],,,0.9,1.2
CC(=O)N[C@H]1C(O)O[C@H](CO)[C@@H](O)[C@@H]1O[C@H](C)C(=O)N[C@@H](Cc1ccccc1)C(=O)N[C@H](CCC(=O)O)C(N)=O (stereo partly drawn) [2-(2-acetamido-2-deoxy-D-glucos-3-O-yl)-D-propionyl-L-phenylalanyl-D-isoglutamine],7.2,7.1,,
CC(=O)N[C@H]1C(O)O[C@H](CO)[C@@H](O)[C@@H]1O[C@H](C)C(=O)N1CCC[C@H]1C(=O)N[C@H](CCC(=O)O)C(N)=O (stereo partly drawn) [2-(2-acetamido-2-deoxy-D-glucos-3-O-yl)-D-propionyl-L-prolyl-D-isoglutamine],6.6,7.0,,
CC(=O)N[C@H]1C(O)O[C@H](CO)[C@@H](O)[C@@H]1O[C@H](C)C(=O)N[C@@H](Cc1ccc(O)cc1)C(=O)N[C@H](CCC(=O)O)C(N)=O (stereo partly drawn) [2-(2-acetamido-2-deoxy-D-glucos-3-O-yl)-D-propionyl-L-tyrosyl-D-isoglutamine],,,6.5,2.3
CC(=O)N[C@H]1C(O)O[C@H](CO)[C@@H](O)[C@@H]1O[C@H](C)C(=O)N[C@H](C(=O)N[C@H](CCC(=O)O)C(N)=O)C(C)C (stereo partly drawn) [2-(2-acetamido-2-deoxy-D-glucos-3-O-yl)-D-propionyl-L-valyl-D-isoglutamine],7.1,4.0,,
